Measurements published in article PMC10207715, “Dual inhibition of IDO1/TDO2 enhances anti-tumor immunity in platinum-resistant non-small cell lung cancer” (Cancer & Metabolism, 2023).
pIC50: −log10 of the molar value.

Tests used:
[1] = target: T1, tryptophan 2,3-dioxygenase-2 (TDO2) (Homo sapiens, UniProt P48775); assay: cellular kynurenine colorimetric assay in GL261-hTDO2 cells, […] h; type: cell-based
T1 construct: full-length human TDO2, overexpressed in GL261 cells

[2] = target: T2, indoleamine 2,3-dioxygenase-1 (IDO1) (Homo sapiens, UniProt P14902); assay: cellular kynurenine colorimetric assay in LLC-hIDO1 cells, […] h; type: cell-based
T2 construct: human IDO1 in expression vector F279-V5/hIDO1, stably transfected in LLC cells
T2 sequence (P14902 whole entry): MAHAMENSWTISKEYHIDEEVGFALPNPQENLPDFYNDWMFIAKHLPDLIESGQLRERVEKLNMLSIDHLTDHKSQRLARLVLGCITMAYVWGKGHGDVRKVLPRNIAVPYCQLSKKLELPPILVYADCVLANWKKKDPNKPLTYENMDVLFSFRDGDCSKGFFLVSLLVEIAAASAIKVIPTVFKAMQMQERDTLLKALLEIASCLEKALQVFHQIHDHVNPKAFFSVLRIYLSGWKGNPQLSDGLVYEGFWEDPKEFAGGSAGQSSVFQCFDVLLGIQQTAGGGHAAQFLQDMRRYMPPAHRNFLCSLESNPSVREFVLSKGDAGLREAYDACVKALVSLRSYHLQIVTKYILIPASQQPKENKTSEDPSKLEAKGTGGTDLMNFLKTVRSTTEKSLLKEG

T1 sequence (P48775 whole entry): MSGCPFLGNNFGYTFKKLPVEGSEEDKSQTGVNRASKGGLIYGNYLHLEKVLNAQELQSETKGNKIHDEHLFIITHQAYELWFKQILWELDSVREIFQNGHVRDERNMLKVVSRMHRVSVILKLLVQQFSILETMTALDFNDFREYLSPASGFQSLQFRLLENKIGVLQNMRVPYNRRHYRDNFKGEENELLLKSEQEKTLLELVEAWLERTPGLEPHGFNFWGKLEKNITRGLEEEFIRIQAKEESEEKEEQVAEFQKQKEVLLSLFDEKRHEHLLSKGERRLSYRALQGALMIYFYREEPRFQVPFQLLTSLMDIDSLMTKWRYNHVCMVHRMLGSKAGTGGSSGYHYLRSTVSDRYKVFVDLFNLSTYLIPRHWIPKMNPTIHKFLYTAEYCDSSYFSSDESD

How did the pIC50 [1] turn out when AT-0174 was run?
Its pIC50 is 6.60.

What about the pIC50 [2] of the same substance?
Its pIC50 is 6.77.
